ChEMBL document CHEMBL4261653, “PPARγ-sparing thiazolidinediones as insulin sensitizers. Design, synthesis and selection of compounds for clinical development” (Bioorg Med Chem, 2018)

Assay: Oral bioavailability in rat
Type: ADME, organism-based
Conditions: in vivo

bioavailability | SMILES
73% | CCc1ccc(C(=O)COc2ccc(CC3SC(=O)NC3=O)cc2)nc1 (configuration not stated) [MITOGLITAZONE]
100% | COc1cccc(C(=O)COc2ccc(CC3SC(=O)NC3=O)cc2)c1 (configuration not stated)
